Experimental data from PMC9220351, “Evaluation of a Conformationally Constrained Indole Carboxamide as a Potential Efflux Pump Inhibitor in Pseudomonas aeruginosa” (Antibiotics, 2022).

Legend:
Assay type in all cases: cell-based, Pseudomonas aeruginosa
[1] = system: 34 MDR P. aeruginosa clinical isolates (CDC & FDA AR Isolate Bank); assay: microbe, parasite or virus in culture; settings: for Levofloxacin MIC fold difference: + labelled EPI […] (TXA09155 head: 50 µg/mL); for Levofloxacin MIC: alone or + labelled EPI […] (TXA09155 head: 50 µg/mL)
Text: P. aeruginosa ATCC 27853 was obtained from the American Type Culture Collection (ATCC; Manassas, VA, USA). P. aeruginosa multidrug-resistant isolates were obtained from the CDC and FDA Antibiotic Resistance Isolate Bank (Atlanta, GA, USA). P. aeruginosa DA7232 (gyrA-T83I, parC-S80L) was a kind gift from Prof. Dan I. Andersson, Uppsala University, Uppsala, Sweden, and has been characterized elsewhere. P. aeruginosa strains K767 (WT), K1455 (mexAB-oprM overexpressed), K2415 (mexXY-oprM overexpressed), and K3698 (oprM∆) were obtained from Prof. Keith Poole, Queen’s University, Kingston, Ontario, Canada and have been characterized elsewhere. Bacterial cells were grown in cation-adjusted Mueller Hinton (CAMH) media, brain heart infusion broth (BHI), or tryptic soy agar (TSA) plates were all obtained from Becton, Dickinson, and Company (BD; Franklin Lakes, NJ, USA). […] Azithromycin was purchased from Tokyo Chemical Industry (Portland, OR, USA). […] Ethidium bromide (EtBr) and glucose were purchased from VWR (Radnor, PA, USA). MC-04,124 and TXA01182 were synthesized at TAXIS Pharmaceuticals. Carbonyl cyanide 3-chlorophenylhydrazone (CCCP) was purchased from Enzo Life Sciences (Farmingdale, NY, USA). DiOC2 (3) and propidium iodide were obtained from Thermo Fisher Scientific (Waltham, MA, USA).
(§1) MIC assays were performed as described previously.

[2] = system: P. aeruginosa mutants EPIR1S, EPIR9S, EPIR20L, EPIR43; assay: MIC of antimicrobials in TXA09155-resistant mutants; settings: Pseudomonas aeruginosa
Protocol: All resistant colonies were verified by determining the MIC to TXA09155. […] This two-component system regulates the expression of more than 100 genes in P. aeruginosa, including genes that code for efflux components (mexX), and plays a role in the resistance to cationic antimicrobial peptides and aminoglycoside antibiotics.
as §1

[3] = system: 209 P. aeruginosa clinical isolates from three US hospitals; assay: Susceptibility study, Micromyx panel
Text: First, 209 clinical isolates of P. aeruginosa were collected, unbiased of susceptibility, from three US hospitals by Micromyx (now part of Microbiologics; Kalamazoo, MI, USA). IHMA (Monthey, Switzerland) collected 300 P. aeruginosa clinical isolates, also unbiased of susceptibility, from the following 63 countries: Argentina, Australia, Belgium, Brazil, Canada, Chile, Colombia, Costa Rica, Croatia, Czech Republic, Denmark, Dominican Republic, Ecuador, France, Georgia, Germany, Greece, Guatemala, Hong Kong, Hungary, India, Ireland, Israel, Italy, Japan, Jordan, Kazakhstan, Kenya, South Korea, Kuwait, Latvia, Lebanon, Lithuania, Malaysia, Mexico, Morocco, Netherlands, New Zealand, Nigeria, Panama, Philippines, Poland, Portugal, Puerto Rico, Qatar, Romania, Russia, Saudi Arabia, Serbia, Slovenia, South Africa, Spain, Sweden, Switzerland, Taiwan, Thailand, Tunisia, Turkey, Ukraine, United Kingdom, United States, Venezuela, and Vietnam. Isolates came from the following types of infection: genitourinary (urine), gastrointestinal (stomach), gastrointestinal (pancreas), […] (wound), respiratory (sputum), […] (blood), respiratory (bronchoalveolar lavage), […] (burn), respiratory (endotracheal aspirate), bodily fluids (abscess/pus), […] (impetiginous lesions), gastrointestinal (abscess) and respiratory (bronchial brushing). CF patients were not excluded.
as §1

[4] = TXA09155 fixed […], 209 isolates

SMILES: Cl.NC[C@@H]1CN[C@H](CNC(=O)c2cc3ccc(-c4ccc(F)cc4)cc3[nH]2)C1 [TXA09155, N-(((2S,4R)-4-(aminomethyl)pyrrolidine-2-yl)methyl)-6-(4-fluorophenyl)-1H-indole-2-carboxamide hydrochloride salt]
- levofloxacin MIC50 in presence of EPI ([1]; EPI (label) fixed […], 34 MDR isolates, levofloxacin alone 32): 2 mg/L
- levofloxacin MIC90 in presence of EPI ([1]; EPI (label) fixed […], 34 MDR isolates, levofloxacin alone 64): 8 mg/L
- Levofloxacin MIC fold difference ([1]; strain AR-0229): 32
- Levofloxacin MIC ([1]; strain AR-0229): 2 mg/L
- Levofloxacin MIC fold difference ([1]; strain AR-0230): 8
- Levofloxacin MIC ([1]; strain AR-0230): 8 mg/L
- Levofloxacin MIC fold difference ([1]; strain AR-0231): 4
- Levofloxacin MIC ([1]; strain AR-0231): 16 mg/L
- Levofloxacin MIC fold difference ([1]; strain AR-0232): 16
- Levofloxacin MIC ([1]; strain AR-0232): 0.5 mg/L
- Levofloxacin MIC fold difference ([1]; strain AR-0233): 32
- Levofloxacin MIC ([1]; strain AR-0233): 0.125 mg/L
- Levofloxacin MIC fold difference ([1]; strain AR-0234): 16
- Levofloxacin MIC ([1]; strain AR-0234): 0.5 mg/L
- Levofloxacin MIC fold difference ([1]; strain AR-0236): 8
- Levofloxacin MIC ([1]; strain AR-0236): 4 mg/L
- Levofloxacin MIC fold difference ([1]; strain AR-0239): 16
- Levofloxacin MIC ([1]; strain AR-0239): 4 mg/L
- Levofloxacin MIC fold difference ([1]; strain AR-0240): 16
- Levofloxacin MIC ([1]; strain AR-0240): 8 mg/L
- Levofloxacin MIC fold difference ([1]; strain AR-0241): 8
- Levofloxacin MIC ([1]; strain AR-0241): 8 mg/L
- Levofloxacin MIC fold difference ([1]; strain AR-0242): 16
- Levofloxacin MIC ([1]; strain AR-0242): 1 mg/L
- Levofloxacin MIC fold difference ([1]; strain AR-0244): 64
- Levofloxacin MIC ([1]; strain AR-0244): 2 mg/L
- Levofloxacin MIC fold difference ([1]; strain AR-0245): 8
- Levofloxacin MIC ([1]; strain AR-0245): 16 mg/L
- Levofloxacin MIC fold difference ([1]; strain AR-0246): 8
- Levofloxacin MIC ([1]; strain AR-0246): 8 mg/L
- Levofloxacin MIC fold difference ([1]; strain AR-0247): 256
- Levofloxacin MIC ([1]; strain AR-0247): ≤ 0.008 mg/L
- Levofloxacin MIC fold difference ([1]; strain AR-0248): 32
- Levofloxacin MIC ([1]; strain AR-0248): 0.5 mg/L
- Levofloxacin MIC fold difference ([1]; strain AR-0249): 32
- Levofloxacin MIC ([1]; strain AR-0249): 2 mg/L
- Levofloxacin MIC fold difference ([1]; strain AR-0250): 8
- Levofloxacin MIC ([1]; strain AR-0250): 8 mg/L
- Levofloxacin MIC fold difference ([1]; strain AR-0252): 64
- Levofloxacin MIC ([1]; strain AR-0252): 0.5 mg/L
- Levofloxacin MIC fold difference ([1]; strain AR-0253): 64
- Levofloxacin MIC ([1]; strain AR-0253): 0.031 mg/L
- Levofloxacin MIC fold difference ([1]; strain AR-0256): 16
- Levofloxacin MIC ([1]; strain AR-0256): 0.031 mg/L
- Levofloxacin MIC fold difference ([1]; strain AR-0258): 8
- Levofloxacin MIC ([1]; strain AR-0258): 0.062 mg/L
- Levofloxacin MIC fold difference ([1]; strain AR-0259): 8
- Levofloxacin MIC ([1]; strain AR-0259): 0.062 mg/L
- Levofloxacin MIC fold difference ([1]; strain AR-0260): 8
- Levofloxacin MIC ([1]; strain AR-0260): 8 mg/L
- Levofloxacin MIC fold difference ([1]; strain AR-0261): 32
- Levofloxacin MIC ([1]; strain AR-0261): 0.25 mg/L
- Levofloxacin MIC fold difference ([1]; strain AR-0262): 64
- Levofloxacin MIC ([1]; strain AR-0262): 0.063 mg/L
- Levofloxacin MIC fold difference ([1]; strain AR-0264): 32
- Levofloxacin MIC ([1]; strain AR-0264): 1 mg/L
- Levofloxacin MIC fold difference ([1]; strain AR-0265): 16
- Levofloxacin MIC ([1]; strain AR-0265): 4 mg/L
- Levofloxacin MIC fold difference ([1]; strain AR-0266): 16
- Levofloxacin MIC ([1]; strain AR-0266): 2 mg/L
- Levofloxacin MIC fold difference ([1]; strain AR-0267): 64
- Levofloxacin MIC ([1]; strain AR-0267): 0.5 mg/L
- Levofloxacin MIC fold difference ([1]; strain AR-0269): 16
- Levofloxacin MIC ([1]; strain AR-0269): 2 mg/L
- Levofloxacin MIC fold difference ([1]; strain AR-0270): 64
- Levofloxacin MIC ([1]; strain AR-0270): 0.5 mg/L
- Levofloxacin MIC fold difference ([1]; strain AR-0271): 8
- Levofloxacin MIC ([1]; strain AR-0271): 4 mg/L
- Levofloxacin MIC fold difference ([1]; strain AR-0272): 8
- Levofloxacin MIC ([1]; strain AR-0272): 2 mg/L
- MIC ([2]; strain EPIR1S (phoQ-L175R)): 200 mg/L
- MIC ([2]; strain EPIR9S (phoQ-L175R)): 100 mg/L
- MIC ([2]; strain EPIR20L (phoQ-H248D)): 200 mg/L
- levofloxacin MIC50 in presence of TXA09155 [3, 4]: 0.12 mg/L
- levofloxacin MIC90 in presence of TXA09155 [3, 4]: 2 mg/L
- Cumulative Susceptibility % Strains at 1 ([3]; concentration 1 µg/ml, n: 209): 2%
- Cumulative Susceptibility % Strains at 2 ([3]; concentration 2 µg/ml, n: 209): 2%
- Cumulative Susceptibility % Strains at 4 ([3]; concentration 4 µg/ml, n: 209): 3%
- Cumulative Susceptibility % Strains at 8 ([3]; concentration 8 µg/ml, n: 209): 6%
- Cumulative Susceptibility % Strains at 16 ([3]; concentration 16 µg/ml, n: 209): 9%
- Cumulative Susceptibility % Strains at 32 ([3]; concentration 32 µg/ml, n: 209): 36%
- Cumulative Susceptibility % Strains at >32 ([3]; concentration >32 µg/ml, n: 209): 100%
